In patent publication US20170319611A1, “METHODS AND COMPOSITIONS COMPRISING AKT INHIBITORS AND/OR PHOSPHOLIPASE D INHIBITORS” (Vanderbilt University, priority 2012, published 2017):

What was measured:
[1] = tested on: LC3 and p62; assay: Autophagy marker immunoblot (LC3-II, p62), U87MG cells; type: cell-based, human; conditions: for LC3-II levels relative to vehicle control: serum-free DMEM, 10 nM bafilomycin A1, 10 μM EVJ, 5 μM JWJ or 10 μM MK2206 for 6 h; for accumulation of LC3-II in the presence of bafilomycin A1: 10 nM bafilomycin A1 30 min, then inhibitor 6 h
Method: Lysates were prepared by incubating cell pellets in lysis buffer (see immunoprecipitation procedure) for 30 minutes at 4° C. Protein concentrations were measuring using the Bio-Rad protein assay reagent. The antibodies used in the various studies as described herein, along with their vendors and catalog numbers are provided in Table 3.
In addition to apoptosis, cells undergo another type of programmed cell death requiring autophagy (Tsujimoto and Shimizu, (2005) Cell Death Differ. 12 Suppl 2, 1528-1534), a process known to be stimulated by nutrient or growth factor deprivation (Kroemer, G. et al., (2010) Mol. Cell 40, 280-293). Autophagy is a multistep process involving formation of double-membrane autophagosomes that engulf cytosolic components and deliver cargo to lysosomes for digestion and nutrient recycling (Ravikumar, B. et al., (2009) J. Cell Sci. 122, 1707-1711). In order to determine if autophagy was perturbed following PLD or Akt inhibitor (MK2206) (Hirai, H. et al., (2010) Mol. Cancer Ther. 9, 1956-1967) treatment, the expression levels of the well-characterized autophagy makers microtubule-associated protein 1A/1B-light chain 3 (LC3) and p62 were measured. Autophagasome number is frequently assessed by measuring conversion of cytosolic LC3-I to a membrane-associated, lipidated LC3-II which is readily measureable as a faster migrating species of LC3 during SDS-PAGE (Kabeya, Y. et al., (2000) EMBO J. 19, 5720-5728). The other marker, p62, is an LC3 and ubiquitin-binding protein, involved in the regulation of protein aggregates and is degraded by autophagy (Komatsu, M. et al., (2005) J. Cell Biol. 169, 425-434). Induction of autophagy and successful degradation of autophagosomes would thus be accompanied by a decrease in p62 levels. […] Fold change in immunoreactivity relative to vehicle control. ANOVA with Dunnett's post-hoc test was used to compare inhibitor treatment to vehicle control (**p<0.01).
To conclusively determine that flux, rather than autophagosome initiation, is regulated by PLC, LC3-II conversion in the presence of the lysosomal proton pump inhibitor bafilomycin A1, which prevents autophagosome fusion to lysosomes and inhibits degradation of autophagosomes, was measured. Thus, bafilomycin A1 is commonly used to discriminate the effects of a compound on autophagy initiation versus flux by assessing LC3-II levels in the presence of a test compound after clamping degradation of autophagosomes (Yamamoto, A. et al., (1998) Cell Struct. Funct. 23, 33-42).

[2] = target: T1, PLD2-Akt interaction (Homo sapiens, UniProt P31749); assay: In vitro protein-protein interaction assay, purified PLD2 and Akt; type: binding; conditions: purified proteins, 10 μM inhibitor in reaction mixture
T1 construct: 6xHis (N); made in house; host or cells: Sf21 insect cells (baculovirus)
Method: 25 nM PLD2-PtS or PtS tag were incubated with 50 nM 6×His-Aktl for 2 h in 50 mM Tris pH 8.0, 0.01% Nonidet P-40, 150 mM NaCl, 0.5 mM EDTA, and 50 mg/mL avidin. Where indicated, 10 μM inhibitor was included in the reaction mixture. PtS-tagged proteins were captured by incubation with strep-tactin resin for 2 h.
Although proteins may co-IP from cell lysate, determining whether proteins form a direct interaction requires binding experiments with purified proteins. As described herein, recombinant Akt and PLD2 was then expressed and purified from Sf21 insect cells (FIG. 8C). […] Numbers indicate molecular weights in kilodaltons. […] Since PLD2 and Akt appear to interact directly, the PLD inhibitors were evaluated to determine whether they disrupted the protein-protein interaction as a potential mechanism by which PLD2 regulates activation of Akt in cells. As described herein, purified PLD2 and Akt were incubated in the presence of EVJ, JWJ, or the allosteric pan-Akt inhibitor, MK2206 (Hirai, H. et al., (2010) Mol. Cancer Ther. 9, 1956-1967) and proteins captured using affinity resin. […] Referring to FIG. 9B, the same procedure was used as in 9A, except 10 μM EVJ, JWJ, or Akt inhibitor MK2206 was included in the reaction mixture.

[3] = tested on: PLD; assay: Endogenous PLD activity assay (PtdBuOH) in U87MG cells; type: cell-based, human
Method: Data is presented as the ratio of the predominant phosphatidylbutanol peaks to the internal standard. To generate concentration response curves, U87MG cells were serum starved for approximately 24 hours. Cells were treated with the indicated concentration of PLD inhibitor for 15 minutes prior to addition of n-butanol containing media and phospolipid extraction.
Cells were pretreated with inhibitors 30 min prior to measurement of PLD activity. Data is presented as the percent activity remaining after PLD inhibitor treatment relative to control.

[4] = tested on: AMPK; assay: AMPK activation immunoblot, U87MG cells; type: cell-based, human; conditions: 24 hours, 10 mM EVJ or 5 mM JWJ
Method: Another well-known regulator of autophagy is the adenosine monophosphate-activated protein kinase (AMPK). Changes in intracellular energy balance or metabolic stress are known to activate AMPK (Hardie, D. G. (2007) Nat. Rev. Mol. Cell Bio. 8, 774-785). AMPK serves as a metabolic checkpoint, acting to restore ATP levels through regulation of metabolic enzymes and inhibition of pro-growth anabolic pathways (Hardie, D. G. (2007) Nat. Rev. Mol. Cell Bio. 8, 774-785). […] U87MG cells were treated for 24 hours with […] before lysis and immunoblotting. AMPK activation was measured by assessing phosphorylation at threonine 172 and also by measuring activation of acetyl coenzyme A carboxylase (ACC) at serine 79.
Another AMPK substrate and component of the autophagasome initiation complex is Unc-51-like kinase 1 (ULK1). Several studies (Egan, D. F. et al., (2011) Science 331, 456-461; Kim, J. et al., (2011) Nature Cell Bio. 13, 132-141) have recently identified multiple AMPK sites on ULK1 that function to enhance initiation of autophagy. […] To determine whether the induction of autophagy through AMPK activation requires Akt, Aktl was silenced and then evaluated for effects of PLD inhibition on AMPK and ULK1 phosphorylation. Aktl was chosen to silence since Aktl phosphorylation was decreased following PLD inhibition in U87MG cells. […] U87MG cells were transfected with Aktl siRNA for 72 hours prior to cell lysis. Cells were treated with […] JWJ 24 hours prior to cell lysis.

[5] = tested on: myrAktl; assay: Akt phosphorylation immunoblot, myrAktl U87MG cells; type: cell-based, human; conditions: overnight, serum-free DMEM; 10 μM EVJ or 5 μM JWJ
Method: To confirm the observed effects on autophagy and cell death following PLD inhibition in glioma cells was due to the regulation of Akt by PLD2, a stable U87MG cell line was developed to expresses a constitutively active form of Akt under the transcriptional control of the tetracycline repressor protein (Yao, F. et al., (1998) Hum. Gene Ther. 9, 1939-1950). This Akt construct contains the myristoylation sequence from Src kinase (Kohn, A. D. et al., (1996) J. Biol. Chem. 271, 31372-31378) and is constitutively membrane associated and active. Without wishing to be bound by a particular theory, if PtdOH serves to enhance membrane docking of Akt then PLD inhibition should not decrease phosphorylation of myristoylated Akt (myrAkt) since this construct bypasses lipid recruitment signals for membrane association. […] Tetracycline inducible myrAktl-expressing U87MG cells, or parental cells, were seeded into media containing 0.1 ug/ml tetracycline and protein expression induced for approximately 24 hours. […] Cells were seeded and treated as in figure A and immunoblotted for phosphorylated and total AMPK. AMPK activation was quantitated by densitometric quantification of the phospho-AMPK band over the total AMPK band. Fold changes were calculated by normalizing the DMSO condition to 1 for each cell line. […] Referring to FIG. 23B, parental or myrAktl U87MG cells were treated with the indicated inhibitors as in 23A overnight before blotting for phosphorylated and total Akt.

T1 sequence (P31749 whole entry): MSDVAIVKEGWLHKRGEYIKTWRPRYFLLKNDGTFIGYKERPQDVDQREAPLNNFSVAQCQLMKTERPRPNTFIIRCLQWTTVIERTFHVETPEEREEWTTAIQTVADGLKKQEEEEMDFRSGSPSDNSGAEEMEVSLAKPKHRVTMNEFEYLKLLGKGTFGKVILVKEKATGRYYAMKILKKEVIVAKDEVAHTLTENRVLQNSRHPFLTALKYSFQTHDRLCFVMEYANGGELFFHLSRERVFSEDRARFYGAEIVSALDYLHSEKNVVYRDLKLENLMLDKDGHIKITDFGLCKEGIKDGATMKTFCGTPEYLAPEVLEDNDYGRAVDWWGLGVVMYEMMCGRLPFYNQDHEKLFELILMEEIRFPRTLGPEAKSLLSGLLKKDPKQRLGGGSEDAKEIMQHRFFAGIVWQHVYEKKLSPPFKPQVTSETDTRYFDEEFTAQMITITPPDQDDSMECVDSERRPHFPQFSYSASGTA

| SMILES | LC3-II levels relative to vehicle control [1] | PLD2-Akt interaction [2] | accumulation of LC3-II in the presence of bafilomycin A1 [1] | phosphorylated Akt in myrAktl U87MG cells [5] | further results |
| --- | --- | --- | --- | --- | --- |
| CO/C1=C\C(C)=C\[C@@H](C)[C@@H](O)[C@@H](C)C/C(C)=C/C=C/[C@H](OC)[C@@H]([C@@H](C)[C@@H](O)[C@H](C)[C@@]2(O)C[C@@H](O)[C@H](C)[C@@H](C(C)C)O2)OC1=O [Bafilomycin A1] | increased LC3-II levels relative to vehicle control |  |  |  |  |
| NC1(c2ccc(-c3nc4ccn5c(=O)[nH]nc5c4cc3-c3ccccc3)cc2)CCC1 [MK2206] | increased LC3-II levels relative to vehicle control | disrupted the PLD2-Akt interaction | no additional accumulation of LC3-II |  |  |
| C[C@@H](CN1CCC(n2c(=O)[nH]c3cc(Br)ccc32)CC1)NC(=O)[C@@H]1C[C@@H]1c1ccccc1 [No. 2, (1R,2S)—N-((S)-1-(4-(5-bromo-2-oxo-2,3-dihydro-1H-benzo[d]imidazol-1-yl)piperidin-1-yl)propan-2-yl)-2-phenylcyclopropane carboxamide] |  | detected even in the presence of PLD inhibitors | no additional accumulation of LC3-II | failed to reduce levels of phosphorylated Akt | IC50 ([3]; U87MG cells, serum withdrawn 24 h, inhibitor pretreatment 30 min, read-out: IC50, attenuation of PLD activity following serum-withdrawal): ~500 nM; AMPK activation (phosphorylation of threonine 172) [4]: observed to increase; phosphorylation of acetyl-coA carboxylase (serine 79) [4]: increased phosphorylation of acetyl-coA carboxylase |
| CCC(=O)N1CCN(c2ccc(-n3c(=O)ccc4cnc5ccc(-c6cnc7ccccc7c6)cc5c43)cc2C(F)(F)F)CC1 [Torinl, reference compound] |  |  |  | decreased phosphorylation of myrAktl |  |
| C[C@@H](CN1CCC(n2c(=O)[nH]c3cc(Cl)ccc32)CC1)NC(=O)c1ccc2ccccc2c1 [VU0155069, reference compound] |  |  |  |  | PtdBuOH production ([3]; U87MG glioblastoma cells, FIG. 28B): blocks PtdBuOH production |
